Measured values taken from patent US6623981B2, “Detection of patients at risk for developing integrin antagonist/agonist mediated disease states” (Bristol-Myers Squibb Company, priority 1998, dated 2003).

How the values were obtained:
[1] = target: T1, immobilized GPIIb/IIIa (Homo sapiens, UniProt P05106+P08514); test: GPIIb/IIIa DDAB ELISA: binding of plasma drug-dependent antibodies in presence versus absence of GPIIb/IIIa antagonist; details: for reactivity of the thrombocytopenic chimpanzee plasma in the DDAB ELISA / reactivity of the patient's plasma in the DDAB ELISA: in words; for ratio mOD/minute in the presence versus absence of the respective compound: antagonist 100 nM
T1 construct: GPIIb/IIIa was either obtained from commercial sources (Enzyme Research Laboratories) or purified as outlined below; Outdated platelet concentrates; tissue Enzyme Research Laboratories (alternative source; no catalogue number given); host or cells: outdated platelet concentrates (Interstate Blood Bank)
Experimental: (§1) In the ELISA Type-2 procedure, Costar Enzyme Immunoassay/Radioimmunoassay [EIA/RIA] 96 well flat bottom plates (medium binding [#3591]) were coated (4° C., 16 hours) with 250 ng of GPIIb/IIIa in phosphate buffered saline (PBS) containing 1 mM CaCl2 and 0.5 mM MgCl2 (PBS/Ca/Mg) in the presence or absence of the indicated GPIIb/IIIa antagonist (100 nM). After three washing steps (PBS/Ca/Mg containing 0.05% v/v Tween 20), plasma was diluted 1:5 in PBS/Ca/Mg containing 0.05% Tween 20 and added to the coated wells in the absence or presence of the indicated GPIIb/IIIa antagonist (100 nM) for 1 hour at room temperature. The wells were washed (PBS/Ca/Mg containing 0.05% v/v Tween 20) and incubated with peroxidase-labeled goat anti-human IgG (y) (Kirkegaard & Perry) for 1 hour at room temperature. The wells were washed (PBS/Ca/Mg containing 0.05% v/v Tween 20) and developed with o-phenyleninediamine [OPD] (0.4 mg/mL in phosphate citrate buffer containing sodium perborate [Sigma]). The change of absorbance was determined kinetically for 15 minutes at […] using a standard ELISA reader. Results are expressed as either delta OD [change in optical density] (Vmax plus compound)−(Vmax minus compound), or the ratio (Vmax plus compound/Vmax minus compound).
In the ELISA Type-1 procedure, after coating with GPIIb/IIIa, the plates were blocked with 1% goat serum (VWR Scientific) and 0.1% casein (Sigma) in PBS/Ca/Mg containing 0.05% Tween 20 for 30 minutes at room temperature, followed by the addition of plasma (diluted in PBS/Ca/Mg containing 0.05% Tween 20, 1% v/v goat serum, 0.1% casein) for 1 hour at room temperature. The secondary antibody was diluted 1:10,000 in PBS/Ca/Mg containing 0.05% Tween 20 and 0.1% casein, and added for 1 hour at room temperature. The bound peroxidase-labeled IgG was detected with 3,3′,5,5′-tetramethylbenzidine (TMB, substrate kit; Pierce) and change in absorbance was determined for 5 minutes at […]. In addition, in the ELISA Type-1 procedure, the respective GPIIb/IIIa antagonist (100 nM) was present in the appropriate wells throughout all incubation and washing steps. The ELISA Type-1 procedure with optimized blocking conditions combined with further purification of the GPIIb/IIIa reduced the background, resulting in increased signal to noise ratio. The immunoglobulin class of DDABs was determined using peroxidase-labeled murine monoclonal antibodies to human Ig (Zymed) as the detection step in the modified ELISA protocol. For these experiments, normal goat serum was replaced with normal murine serum (Zymed).
The ability of DDABs present in plasma from a patient and a chimpanzee to bind to immobilized GPIIb/IIIa in the presence of various GPIIb/IIIa antagonists were compared. Results are expressed as the ratio mOD/minute in the presence versus absence of the respective compound.
(§2) The reactivity of the patient's plasma with Compound A and metabolites thereof was compared. Metabolites of Compound A were isolated from rat urine and tested for their ability to prevent platelet aggregation in platelet-rich plasma. The ability of DDABs present in plasma from a patient to bind to GPIIb/IIIa in the presence of the indicated metabolites of Compound A was tested using the GPIIb/IIIa DDAB ELISA. All three metabolites of Compound A were active in preventing ADP-induced platelet aggregation using platelet rich plasma. While the metabolites only differ from the parental compound (Compound A) with respect to hydroxylation of a single carbon atom, the reactivity of the patient's DDABs with metabolite M-3 was only 50% and that with metabolite M-2 was undetectable.

[2] = target: T2, GPIIb/IIIa (Homo sapiens, UniProt P05106+P08514); test: DDAB ELISA Type-2 screen of blood donor plasma (general population); format: binding; details: American Red Cross blood donors
T2 construct: GPIIb/IIIa was either obtained from commercial sources (Enzyme Research Laboratories) or purified as outlined below; Outdated platelet concentrates; tissue Enzyme Research Laboratories (alternative source; no catalogue number given); host or cells: outdated platelet concentrates (Interstate Blood Bank)
Experimental: as §1
The occurrence of DDABs in the general population was tested. Plasma samples from blood donors were obtained from the American Red Cross and tested for reactivity with Compound A and Compound B in the DDAB ELISA Type-2 procedure. While the majority of the blood donors were negative in the DDAB ELISA, 2.2 and 14.6% donors presented a reactivity (delta>3) with Compound A and Compound B, respectively. A reactivity with a delta >5 was only evident in 1.3% and 7.1% of the blood donors with Compound A and Compound B, respectively. Thus, the prevalence and titer of pre-existing DDABs is relatively low in the general population and varies with the respective GPIIb/IIIa antagonist employed.

[3] = Blood concentration in dosed patients; format: in vivo
[4] = test system: gel purified platelets; test: Distribution of DDABs from plasma to gel purified platelets, dose-response of antagonist, read by DDAB ELISA; format: cell-based, human; details: plasma of healthy donor with DDABs to Compound A
Experimental: Panel A: Citrate plasma was obtained from two patients (307, 330) and a chimpanzee (A264) presenting with thrombocytopenic episodes while treated with GPIIb/IIIa antagonists Compound A or Compound D, respectively. The resulting plasma was incubated (30 minutes, room temperature) with gel purified platelets in the absence (closed bars) or presence (open bars) of Compound A (307, 330), or Compound D (A264). Platelets were removed by centrifugation, and the resulting plasma was analyzed by a GPIIb/IIIa-specific DDAB ELISA. The ELISA determines the binding of antibodies to GPIIb/IIIa in the presence of Compound A (307, 330) or Compound D (A264). […] Panel B: Citrate plasma derived from chimpanzee A264 (open circles) or an apparently healthy donor (closed circles) containing DDABs to Compound A was incubated with gel purified platelets in the presence of the indicated dose-response of Compound D (A264) or Compound A (healthy donor) as in panel A. Platelet poor plasma was prepared and analyzed by the DDAB ELISA as in panel A. Results are expressed as percentage inhibition of DDABs in plasma in comparison to samples treated with platelets in the absence of GPIIb/IIIa antagonist.
For solution-phase absorption in the DDAB ELISA, gel filtered platelets were prepared. […] Platelet-containing fractions were manually collected and platelet concentration was determined using a Coulter Counter. […]

[5] = test system: platelet aggregation in platelet-rich plasma; test: ADP-induced platelet aggregation in platelet-rich plasma (PRP); format: cell-based
Experimental: as §2

[6] = plasma #330 (thrombocytopenic patient treated with Compound A)
[7] = plasma A264 (thrombocytopenic chimpanzee dosed with Compound D)

T2 sequence (P08514 32-887 limits assumed): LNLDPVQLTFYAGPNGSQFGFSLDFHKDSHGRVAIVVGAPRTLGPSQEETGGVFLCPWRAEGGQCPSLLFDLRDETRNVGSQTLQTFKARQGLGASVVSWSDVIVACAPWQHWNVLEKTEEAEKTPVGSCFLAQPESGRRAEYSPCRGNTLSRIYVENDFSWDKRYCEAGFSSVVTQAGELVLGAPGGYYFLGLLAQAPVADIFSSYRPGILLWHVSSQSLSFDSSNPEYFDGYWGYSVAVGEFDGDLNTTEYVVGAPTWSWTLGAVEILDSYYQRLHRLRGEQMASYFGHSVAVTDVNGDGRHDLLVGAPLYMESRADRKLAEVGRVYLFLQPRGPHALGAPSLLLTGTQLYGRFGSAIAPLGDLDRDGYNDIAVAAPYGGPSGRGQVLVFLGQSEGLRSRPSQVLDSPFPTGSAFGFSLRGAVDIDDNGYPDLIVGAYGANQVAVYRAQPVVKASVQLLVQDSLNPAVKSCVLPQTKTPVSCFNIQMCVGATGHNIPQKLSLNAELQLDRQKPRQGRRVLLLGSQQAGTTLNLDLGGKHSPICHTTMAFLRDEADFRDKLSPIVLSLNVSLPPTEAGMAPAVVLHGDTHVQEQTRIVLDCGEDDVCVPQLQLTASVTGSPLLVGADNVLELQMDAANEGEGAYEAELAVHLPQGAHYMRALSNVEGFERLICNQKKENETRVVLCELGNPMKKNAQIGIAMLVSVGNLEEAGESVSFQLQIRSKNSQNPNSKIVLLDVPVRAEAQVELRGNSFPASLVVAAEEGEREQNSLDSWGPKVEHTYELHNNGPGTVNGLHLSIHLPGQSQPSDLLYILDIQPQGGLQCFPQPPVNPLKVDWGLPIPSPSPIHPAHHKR
T2 sequence (P08514 891-1039 limits assumed): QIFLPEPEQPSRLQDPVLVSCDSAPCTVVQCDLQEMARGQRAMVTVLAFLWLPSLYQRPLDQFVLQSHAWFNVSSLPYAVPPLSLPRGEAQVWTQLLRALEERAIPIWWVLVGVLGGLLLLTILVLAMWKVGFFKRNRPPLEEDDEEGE
T2 sequence (P05106 27-788): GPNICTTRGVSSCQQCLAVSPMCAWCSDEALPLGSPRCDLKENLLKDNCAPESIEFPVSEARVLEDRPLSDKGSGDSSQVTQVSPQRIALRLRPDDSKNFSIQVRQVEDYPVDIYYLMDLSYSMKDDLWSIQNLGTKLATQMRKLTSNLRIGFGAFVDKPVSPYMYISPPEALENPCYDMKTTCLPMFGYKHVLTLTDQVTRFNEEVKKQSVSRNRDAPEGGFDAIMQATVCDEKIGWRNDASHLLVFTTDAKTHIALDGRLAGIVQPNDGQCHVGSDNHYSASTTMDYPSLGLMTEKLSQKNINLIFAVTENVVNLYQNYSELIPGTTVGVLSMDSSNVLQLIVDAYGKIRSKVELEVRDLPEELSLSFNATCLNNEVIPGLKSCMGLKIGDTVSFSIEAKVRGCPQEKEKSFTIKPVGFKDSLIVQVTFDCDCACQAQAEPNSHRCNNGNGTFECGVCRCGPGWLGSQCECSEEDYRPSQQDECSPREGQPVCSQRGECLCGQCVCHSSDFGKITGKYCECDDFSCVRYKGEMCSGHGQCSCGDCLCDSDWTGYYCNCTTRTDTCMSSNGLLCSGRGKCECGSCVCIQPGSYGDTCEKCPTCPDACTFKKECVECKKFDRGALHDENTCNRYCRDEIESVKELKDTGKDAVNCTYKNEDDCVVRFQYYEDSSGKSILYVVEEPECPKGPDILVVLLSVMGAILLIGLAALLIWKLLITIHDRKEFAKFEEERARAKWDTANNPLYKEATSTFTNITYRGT
T1 sequence (P08514 32-887 limits assumed): as the sequence (P08514 32-887 limits assumed) above
T1 sequence (P08514 891-1039 limits assumed): as the sequence (P08514 891-1039 limits assumed) above
T1 sequence (P05106 27-788): as the sequence (P05106 27-788) above

Row | SMILES | reactivity of the thrombocytopenic chimpanzee plasma in the DDAB ELISA [1] | reactivity of the patient's plasma in the DDAB ELISA [1] | ratio mOD/minute in the presence versus absence of the respective compound [1, 6] | ratio mOD/minute in the presence versus absence of the respective compound [1, 7] | blood donors with a reactivity with a delta >5 [2] [%] | donors presenting a reactivity (delta>3) [2] [%] | ELISA ratio ([1]; DDABs in plasma from a patient, binding to GPIIb/IIIa in presence of Compound A or its metabolites) | Peak blood concentrations [3] | IC50 ([4]; estimated, read-out: IC50 (inhibition of DDABs in plasma by distribution to platelets)) [nM] | concentration required to completely shift the DDABs to the platelet surface ([4]; 30 minutes, room temperature) | IC50 [5] [nM]
1 | Cc1noc(C)c1S(=O)(=O)N[C@@H](CNC(=O)C[C@H]1CC(c2ccc(C(=N)N)cc2)=NO1)C(=O)O [Compound B] | no reactivity | reacts strongly | 11.2 | 0.8 | 7.1 | 14.6 | – | – | – | – | –
2 | Cc1ccc(S(=O)(=O)N[C@@H](CNC(=O)c2cc3n(n2)CCCN(CCC2CCNCC2)C3=O)C(=O)O)cc1 [Compound C, 2(S)-((4-methylphenylsulfonyl)amino]-3-[[[5,6,7,8-tetrahydro-4-oxo-5-[2-(piperidin-4-yl)ethyl]-4H-pyrazolo-[1,5-a][1,4]diazepin-2-yl]carbonyl]amino]propionic acid] | less | no reactivity | 1.0 | 5.4 | – | – | – | – | – | – | –
3 | CCCCOC(=O)N[C@@H](CNC(=O)C[C@H]1CC(c2ccc(C(=N)N)cc2)=NO1)C(=O)O [Compound A, 2(S)-[(n-butoxycarbonyl)amino]-3-[[[3-[4-(aminoiminomethyl)phenyl]isoxazolin-5 (R)-yl]methylcarbonyl]amino]propionic acid] | no reactivity | reacts strongly | 9.2 | 1.0 | 1.3 | 2.2 | 13.5 | up to 50 nM | ~0.3 | Less than 1 nM | 32
4 | O=C(NC[C@H](NS(=O)(=O)c1cccnc1)C(=O)O)c1cc2cc(CCC3CCNCC3)sc2s1 [Compound D, 5-[2-(piperdin-4-yl)ethyl]thieno[2,3-b]thiophene-2-N-(3-2(S)-(3-pyridinylsulfonylamino)propionic acid]carboxamide] | strongly reactive | reacts strongly | 4.9 | 14.4 | – | – | – | – | – | – | –
